# Results published in US11208396B2, “Oxime compounds as agonists of the muscarinic M1 and/or M4 receptor” (Heptares Therapeutics Limited, priority 2015, dated 2021).
# Experiments:
# Format in all cases: cell-based
# [1] = biological target: T1, human muscarinic M1 receptor (Homo sapiens, UniProt P11229); test: Alphascreen Surefire phospho-ERK1/2 functional assay, M1; conditions: for % Emax cf. ACh, M1 / EC50: CHO cells stably expressing human M1; for % Emax cf. ACh, M1 / Emax: Emax compared with ACh; for EC50: agonist 5 min, 37° C., read-out: pEC50 M1 (converted); for Emax: CHO, read-out: % Emax cf. ACh, M1, CHO cells stably expressing human M1
# T1 sequence (P11229 1-460): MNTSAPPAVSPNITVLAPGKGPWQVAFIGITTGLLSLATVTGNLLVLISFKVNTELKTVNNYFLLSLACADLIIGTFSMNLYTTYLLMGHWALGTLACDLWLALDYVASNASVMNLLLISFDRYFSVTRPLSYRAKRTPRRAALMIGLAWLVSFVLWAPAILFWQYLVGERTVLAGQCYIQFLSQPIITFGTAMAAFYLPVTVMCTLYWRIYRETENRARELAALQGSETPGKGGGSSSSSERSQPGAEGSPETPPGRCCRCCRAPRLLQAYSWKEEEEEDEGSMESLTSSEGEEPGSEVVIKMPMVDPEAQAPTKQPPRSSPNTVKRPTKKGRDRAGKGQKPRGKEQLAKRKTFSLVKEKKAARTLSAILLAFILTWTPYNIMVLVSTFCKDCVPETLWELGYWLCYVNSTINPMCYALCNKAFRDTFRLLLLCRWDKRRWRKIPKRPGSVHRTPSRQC
# Protocol: (§1) ERK1/2 phosphorylation is a downstream consequence of both Gq/11 and Gi/o protein coupled receptor activation, making it highly suitable for the assessment of M1, M3 (Gq/11 coupled) and M2, M4 receptors (Gi/o coupled), rather than using different assay formats for different receptor subtypes. CHO cells stably expressing the human muscarinic M1, M2, M3 or M4 receptor were plated (25K/well) onto 96-well tissue culture plates in MEM-alpha+10% dialysed FBS. Once adhered, cells were serum-starved overnight. Agonist stimulation was performed by the addition of 5 μL agonist to the cells for 5 min (37° C.). Media was removed and 50 μL of lysis buffer added. After 15 min, a 4 μL sample was transferred to 384-well plate and 7 μL of detection mixture added. Plates were incubated for 2 h with gentle agitation in the dark and then read on a PHERAstar plate reader.
# (§2) pEC50 and Emax figures were calculated from the resulting data for each receptor subtype.
# [2] = biological target: T2, human muscarinic M4 receptor (Homo sapiens, UniProt P08173); test: Alphascreen Surefire phospho-ERK1/2 functional assay, M4; conditions: for % Emax cf. ACh, M4 / Emax: Emax compared with ACh; for EC50: read-out: pEC50 M4 (converted); for Emax: CHO, read-out: % Emax cf. ACh, M4, CHO cells stably expressing human M4
# T2 construct: expressed in transfected cells
# T2 sequence (P08173 1-479): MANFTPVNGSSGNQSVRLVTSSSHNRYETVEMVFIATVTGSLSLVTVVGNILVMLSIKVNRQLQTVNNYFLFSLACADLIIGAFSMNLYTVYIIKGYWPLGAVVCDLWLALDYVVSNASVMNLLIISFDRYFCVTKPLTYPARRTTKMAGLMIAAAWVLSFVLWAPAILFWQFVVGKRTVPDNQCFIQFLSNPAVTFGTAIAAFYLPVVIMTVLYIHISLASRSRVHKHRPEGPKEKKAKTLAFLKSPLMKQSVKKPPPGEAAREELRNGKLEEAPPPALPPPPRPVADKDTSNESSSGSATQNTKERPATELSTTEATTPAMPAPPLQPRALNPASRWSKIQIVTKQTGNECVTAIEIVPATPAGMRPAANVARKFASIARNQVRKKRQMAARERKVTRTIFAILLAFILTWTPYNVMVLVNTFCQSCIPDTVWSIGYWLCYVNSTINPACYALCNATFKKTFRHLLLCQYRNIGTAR
# Protocol: as §1, §2
# [3] = biological target: T3, human muscarinic M2 receptor (Homo sapiens, UniProt P08172); test: Alphascreen Surefire phospho-ERK1/2 functional assay, M2; conditions: for % Emax cf. ACh, M2 / EC50 / pEC50 M2: CHO cells stably expressing human M2; for % Emax cf. ACh, M2 / Emax: Emax compared with ACh; for EC50 / pEC50 M2: agonist 5 min, 37° C.; for EC50: read-out: pEC50 M2 (converted); for Emax: CHO, read-out: % Emax cf. ACh, M2, CHO cells stably expressing human M2
# T3 sequence (P08172 1-466): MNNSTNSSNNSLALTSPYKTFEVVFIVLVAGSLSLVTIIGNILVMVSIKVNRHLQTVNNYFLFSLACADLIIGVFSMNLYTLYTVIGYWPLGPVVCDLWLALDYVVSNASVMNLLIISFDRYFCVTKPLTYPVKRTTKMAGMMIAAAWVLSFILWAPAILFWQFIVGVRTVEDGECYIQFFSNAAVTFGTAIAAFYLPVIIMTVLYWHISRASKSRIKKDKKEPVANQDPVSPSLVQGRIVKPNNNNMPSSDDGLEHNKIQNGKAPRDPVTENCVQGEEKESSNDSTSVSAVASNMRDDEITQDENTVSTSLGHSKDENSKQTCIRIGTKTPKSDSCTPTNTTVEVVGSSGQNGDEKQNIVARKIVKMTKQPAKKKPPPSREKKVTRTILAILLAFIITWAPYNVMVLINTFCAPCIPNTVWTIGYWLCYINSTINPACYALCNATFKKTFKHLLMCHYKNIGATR
# Protocol: as §1, §2
# [4] = biological target: T4, human muscarinic M3 receptor (Homo sapiens, UniProt P20309); test: Alphascreen Surefire phospho-ERK1/2 functional assay, M3; conditions: for % Emax cf. ACh, M3 / EC50 / pEC50 M3: CHO cells stably expressing human M3; for % Emax cf. ACh, M3 / Emax: Emax compared with ACh; for EC50 / pEC50 M3: agonist 5 min, 37° C.; for EC50: read-out: pEC50 M3 (converted); for Emax: CHO, read-out: % Emax cf. ACh, M3, CHO cells stably expressing human M3
# T4 construct: expressed in transfected cells
# T4 sequence (P20309 whole entry): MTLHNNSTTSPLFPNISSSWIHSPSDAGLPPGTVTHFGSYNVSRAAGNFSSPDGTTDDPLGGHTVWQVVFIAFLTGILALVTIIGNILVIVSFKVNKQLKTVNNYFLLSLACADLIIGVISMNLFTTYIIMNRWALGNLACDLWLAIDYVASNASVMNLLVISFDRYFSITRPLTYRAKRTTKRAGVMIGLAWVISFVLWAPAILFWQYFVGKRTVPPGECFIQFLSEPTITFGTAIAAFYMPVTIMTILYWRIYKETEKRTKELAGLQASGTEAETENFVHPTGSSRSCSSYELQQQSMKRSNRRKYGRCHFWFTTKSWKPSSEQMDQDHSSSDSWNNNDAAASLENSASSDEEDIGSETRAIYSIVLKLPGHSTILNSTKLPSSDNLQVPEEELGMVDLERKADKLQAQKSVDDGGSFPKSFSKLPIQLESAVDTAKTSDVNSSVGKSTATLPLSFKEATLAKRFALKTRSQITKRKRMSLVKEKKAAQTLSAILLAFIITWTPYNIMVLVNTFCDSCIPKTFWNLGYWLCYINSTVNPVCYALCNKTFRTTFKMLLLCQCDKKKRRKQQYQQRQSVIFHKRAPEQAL
# Protocol: as §1, §2
# [5] = CHO cells stably expressing human M4
# [6] = CHO cells stably expressing human M4, agonist 5 min, 37° C.
"% Emax cf. ACh, M1 [1]",EC50 [1],"% Emax cf. ACh, M4 [2, 5]","EC50 [2, 6]","% Emax cf. ACh, M2 [3]",EC50 [3],"% Emax cf. ACh, M3 [4]",EC50 [4],pEC50 M2 [3],pEC50 M3 [4],Emax [1],Emax [2],Emax [3],Emax [4],"pEC50 M4 [2, 6]",Structure (SMILES)
98%,100 nM,80%,63.1 nM,5%,> 20000 nM,6%,> 20000 nM,,,,,,,,"CCOC(=O)N1CCCC(N2CCC(C(CC)=NOC(C)C)CC2)CC1 (single isomer, unassigned) [1-12 Isomer 1 (racemic)]"
72%,316 nM,101%,25.1 nM,2%,,1%,,< 4.7,< 4.7,,,,,,"CCOC(=O)N1CCCC(N2CCC(C(CC)=NOC(C)C)CC2)CC1 (single isomer, unassigned) [1-12 Isomer 2 (racemic)]"
,200 nM,,63.1 nM,,> 20000 nM,,> 20000 nM,,,89%,68%,71%,9%,,"CCOC(=O)N1CCC2(CC(N3CCC(C(C)=NOC)CC3)C2)C1 (single isomer, unassigned) [2-1 Mixture of isomers 2]"
5%,> 20000 nM,67%,50.1 nM,7%,> 20000 nM,2%,> 20000 nM,,,,,,,,"CCOC(=O)N1CCC2(CC(N3CCC(C(CC)=NOC)CC3)C2)C1 (single isomer, unassigned) [2-2 Isomer 3]"
59%,200 nM,105%,20 nM,69%,,18%,,< 4.7,< 4.7,,,,,,"CCOC(=O)N1CCC2(CC(N3CCC(C(CC)=NOC)CC3)C2)C1 (single isomer, unassigned) [2-2 Isomer 4]"
,158 nM,,25.1 nM,,> 20000 nM,,> 20000 nM,,,87%,77%,15%,7%,,"CCCC(=NOC)C1CCN(C2CC3(CCN(C(=O)OCC)C3)C2)CC1 (single isomer, unassigned) [2-3 Isomer 4]"
49%,501 nM,62%,,,> 20000 nM,,> 20000 nM,,,,,7%,0%,6.7,"CCOC(=O)N1CCC[C@H](N2CCC(C(C)=NOC)CC2)CC1 (single isomer, unassigned) [(S)-1-1 Isomer 2]"
,> 20000 nM,,63.1 nM,11%,> 20000 nM,,> 20000 nM,,,21%,81%,,9%,,"CCOC(=O)N1CCC[C@H](N2CCC(C(CC)=NOC)CC2)CC1 (single isomer, unassigned) [(S)-1-2 Isomer 1]"
36%,501 nM,81%,50.1 nM,5%,,7%,,< 4.7,< 4.7,,,,,,"CCOC(=O)N1CCC[C@H](N2CCC(C(CC)=NOC)CC2)CC1 (single isomer, unassigned) [(S)-1-2 Isomer 2]"
,251 nM,,25.1 nM,,> 20000 nM,,> 20000 nM,,,93%,126%,7%,0%,,"CCCC(=NOC)C1CCN([C@H]2CCCN(C(=O)OCC)CC2)CC1 (single isomer, unassigned) [(S)-1-3 Isomer 2]"
